Test results taken from the supplement of paper PMC10307832.

Tests used:
Assay in all cases: relative viability (nuclei count vs DMSO), 5 days (fraction); higher = more cells survive
[1] = compound: CC1=NC=CC(=C1)C2=CC=C(C=C2)CC(=O)NC3=CC=C(C=C3)C4=CN=CC=C4 [Wnt-C59] + Cc1cc(Nc2cc(N3CCN(C)CC3)nc(Sc3ccc(NC(=O)C4CC4)cc3)n2)n[nH]1 [Tozasertib] (partner 0.1 µM)
Summary of the method: (§1)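 Nuclei were stained with Hoechst during a one-step fixation (final 0.05% Triton X-100, 1% formaldehyde, 1 ug/ml Hoechst) carried out 5 days after dosing, then counted on 4× images. The cells, lung cancer lines in 1536-well plates, had been dosed by pin tool the day after seeding with one drug alone or a fixed anchor-drug dose plus five library-drug doses (not always all listed) in √10 steps. Relative viability is the nuclei count in treated wells divided by that in vehicle wells, and each value is the median of duplicate plates.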

[2] = compound: CS(=O)(=O)CCNCc1ccc(-c2ccc3ncnc(Nc4ccc(OCc5cccc(F)c5)c(Cl)c4)c3c2)o1 [Lapatinib] + CC(C)C[C@H](NC(=O)[C@H](Cc1ccccc1)NC(=O)c1cnccn1)B(O)O [Bortezomib] (partner 0.002 µM)
Summary of the method: as §1

[3] = compound: CS(=O)(=O)CCNCc1ccc(-c2ccc3ncnc(Nc4ccc(OCc5cccc(F)c5)c(Cl)c4)c3c2)o1 [Lapatinib] + O=C(c1cc(Cc2n[nH]c(=O)c3ccccc23)ccc1F)N1CCN(C(=O)C2CC2)CC1 [Olaparib] (partner 8 µM)
Summary of the method: as §1

[4] = compound: CS(=O)(=O)CCNCc1ccc(-c2ccc3ncnc(Nc4ccc(OCc5cccc(F)c5)c(Cl)c4)c3c2)o1 [Lapatinib] + CCNC(=O)c1noc(-c2cc(C(C)C)c(O)cc2O)c1-c1ccc(CN2CCOCC2)cc1 [Luminespib] (partner 0.01 µM)
Summary of the method: as §1

Question: How did the relative viability ([1]; first compound 0.001 µM) turn out when EMC-BAC-2 was run?
Answer: 0.341

Question: What about the relative viability ([1]; first compound 0.01 µM) of the same cell line?
Answer: 0.274

Question: And the relative viability ([1]; first compound 0.03162 µM)?
Answer: 0.322

Question: What about the relative viability ([1]; first compound 0.1 µM) of the same cell line?
Answer: 0.306

Question: What about the relative viability ([2]; first compound 0.02 µM) of the same cell line?
Answer: 0.871

Question: What about the relative viability ([2]; first compound 0.06325 µM) of the same cell line?
Answer: 0.999

Question: What about the relative viability ([2]; first compound 0.2 µM) of the same cell line?
Answer: 1.07

Question: And the relative viability ([2]; first compound 0.6325 µM)?
Answer: 0.991

Question: What about the relative viability ([2]; first compound 2 µM) of the same cell line?
Answer: 0.87

Question: What about the relative viability ([3]; first compound 0.06325 µM) of the same cell line?
Answer: 0.447

Question: What about the relative viability ([3]; first compound 0.2 µM) of the same cell line?
Answer: 0.56

Question: What about the relative viability ([3]; first compound 0.6325 µM) of the same cell line?
Answer: 0.537

Question: What about the relative viability ([3]; first compound 2 µM) of the same cell line?
Answer: 0.528

Question: And the relative viability ([4]; first compound 0.02 µM)?
Answer: 1.09

Question: And the relative viability ([4]; first compound 0.06325 µM)?
Answer: 0.998

Question: What about the relative viability ([4]; first compound 0.2 µM) of the same cell line?
Answer: 1.19

Question: What about the relative viability ([4]; first compound 0.6325 µM) of the same cell line?
Answer: 1.06

Question: And the relative viability ([4]; first compound 2 µM)?
Answer: 1.08
